Data set [1] has as its system Mycobacterium tuberculosis. Nature of the data set: Antimycobacterial activity against Mycobacterium tuberculosis H37Rv incubated for 5 days by two-fold serial dilution method. Particulars: 120 h, time 5 day. Type of data set: functional.
The subject of data set [2] is Mycobacterium tuberculosis. Nature of the data set: Antimycobacterial activity against Mycobacterium tuberculosis H37Rv ATCC 27294 incubated for 5 days by microplate alamar blue assay. It is filed as functional. The following applies: H37Rv ATCC 27294, 120 h, time 5 day.
Data set [3] has as its system Mycobacterium tuberculosis. Nature of the data set: Antimycobacterial activity against Mycobacterium tuberculosis H37Rv. Type of data set: functional.
The subject of data set [4] is Mycobacterium tuberculosis. As to the kind of experiment: Bactericidal activity against Mycobacterium tuberculosis H37Rv at 8 ug/ml measured within 7 days. It is filed as functional. The following applies: dose 8 µg/ml; time day <=7.
Data set [5] has as its system Mycobacterium tuberculosis. Nature of the data set: Antimycobacterial activity against Mycobacterium tuberculosis H37Rv incubated for 7 days by microplate alamar blue assay. Type of data set: functional. Particulars: 168 h, time 7 day.
The test system of data set [6] is CHO-K1. Nature of the data set: Cytotoxicity against CHO-K1 cells incubated for 24 hrs by MTT assay. It is filed as cell-based. Particulars: Cricetulus griseus, CHO-K1, 24 h.
A short description of data set [7]: Selectivity index, ratio of IC50 for CHO-K1 cells to MIC for Mycobacterium tuberculosis H37Rv. It is filed as toxicity. Particulars: hamster.
In data set [8] the test system is Mycobacterium tuberculosis. As to the kind of experiment: Antimycobacterial activity against Mycobacterium tuberculosis H37Rv incubated for 5 days by microplate alamar blue assay. Type of data set: functional. Particulars: 120 h, time 5 day.
The test system of data set [9] is Mycobacterium tuberculosis. As to the kind of experiment: Antimycobacterial activity against Mycobacterium tuberculosis H37Rv assessed as percentage inhibition at 250 ug/ml measured after 2 to 4 weeks by Lowensteine-Jensen method relative to control. It is filed as functional. The following applies: time 2-4 weeks.
Data set [10] can be described thus: Toxicity in brine shrimp nauplii assessed as induction of lethality incubated for 24 hrs by counting method. The following applies: artemia salina.
Data set [11] relates to Mycobacterium tuberculosis. As to the kind of experiment: Antimycobacterial activity against Mycobacterium tuberculosis H37Ra ATCC 25177 by two fold dilution technique. Type of data set: functional.
Data set [12] deals with Mycobacterium tuberculosis. Nature of the data set: Antimycobacterial activity against Mycobacterium tuberculosis H37Ra ATCC 25177. Type of data set: functional.
Data set [13] relates to Mycobacterium tuberculosis. Nature of the data set: Antimycobacterial activity against Mycobacterium tuberculosis H37Rv ATCC 27294 incubated for 6 days by resazurin microtiter assay. Type of data set: functional. The following applies: H37Rv ATCC 27294, 144 h, time 6 day, read-out: MIC100.
Data set [14] has as its system Mycobacterium tuberculosis. As to the kind of experiment: Antimycobacterial activity against Mycobacterium tuberculosis 209 incubated for 6 days by resazurin microtiter assay. Type of data set: functional. The following applies: Mycobacterium tuberculosis, 209, 144 h; time 6 day; read-out: MIC100.
Data set [15] relates to Mycobacterium tuberculosis. Nature of the data set: Antimycobacterial activity against Mycobacterium tuberculosis H37Ra incubated for 6 days by resazurin microtiter assay. It is filed as functional. The following applies: 144 h, time 6 day.
The test system of data set [16] is Mycobacterium tuberculosis. As to the kind of experiment: Antimycobacterial activity against Mycobacterium tuberculosis H37Rv ATCC 27294 by agar dilution method. It is filed as functional.
The subject of data set [17] is Mycolicibacterium phlei. As to the kind of experiment: Antimycobacterial activity against Mycobacterium phlei incubated for 5 days by microplate alamar blue assay. It is filed as functional. Particulars: 120 h, time 5 day.
The subject of data set [18] is Mycobacterium tuberculosis. As to the kind of experiment: Antimycobacterial activity against Mycobacterium tuberculosis H37Rv ATCC 27294. It is filed as functional.
Data set [19] has as its system Mycolicibacterium smegmatis. As to the kind of experiment: Antimycobacterial activity against Mycobacterium smegmatis ATCC607 incubated for 16 to 24 hrs by microdilution liquid method. The following applies: time 16-24 hrs. It is filed as functional.
The subject of data set [20] is Mycobacterium tuberculosis. As to the kind of experiment: Antimycobacterial activity against Mycobacterium tuberculosis. Type of data set: functional, organism-based.

Values after ≈ are worked out from the molar mass of the structure shown.

In data set [1], `c1csc(-c2nnc(Cc3cccc4ccccc34)o2)c1` yielded an MIC of 0.4 µM (≈ 0.117 µg/mL).

With `CN1CCN(Cc2nnc(-c3ccccc3)o2)CC1`, the MIC in data set [2] is 1.6 µg/mL (≈ 6.19 µM).

In turn, `O=C(Nc1nnc(-c2ccc(F)cc2)o1)c1ccc(Cl)cc1` displayed an MIC in data set [3] of 1.6 µg/mL (≈ 5.04 µM). In data set [4], this compound yielded an Activity above 90%.

Consider `Oc1ccc(-c2nnc(S)o2)cc1`, for which the MIC in data set [5] was found to be 0.6 µg/mL (≈ 3.09 µM). In addition, in [6], the half-inhibitory concentration (IC50) stood at 23.8 µg/mL (≈ 123 µM). Also, the selectivity ratio in data set [7] is 39.

The compound `Fc1ccc(-c2nnc(-c3n[nH]cc3-c3ccc(Cl)cc3)o2)cc1` registered an MIC in [2] of 25 µg/mL (≈ 73.4 µM).

Take `N#Cc1ccc(-c2nnc(-c3n[nH]cc3-c3ccc(Cl)cc3)o2)cc1`: the MIC in data set [2] stood at 25 µg/mL (≈ 71.9 µM).

In turn, `Cn1c(-c2cccc(Cl)c2Cl)nc2cc(-c3nc(-c4ccc(Cl)cc4)no3)ccc21` yielded an MIC in data set [8] of 1.6 µg/mL (≈ 3.51 µM).

Compound `Cn1c(-c2cccc(Cl)c2Cl)nc2cc(-c3nc(-c4ccccc4Cl)no3)ccc21` registered an MIC in data set [8] of 1.6 µg/mL (≈ 3.51 µM).

Take `Cn1c(-c2cccc(Cl)c2F)nc2cc(-c3nc(-c4ccc(Cl)cc4)no3)ccc21`: in [8], the MIC was determined as 1.6 µg/mL (≈ 3.64 µM).

As to `Cc1ccc2nc(Cl)c(CN(c3ccccc3)c3nnc(-c4cccnc4)o3)cc2c1`, in data set [9], the inhibition at 250 µg/mL is 96%. In addition, the median lethal concentration (LC50) at 24 h in [10] was 26 µM.

On to `Clc1ccc2nc(Cl)c(CN(c3ccccc3)c3nnc(-c4cccnc4)o3)cc2c1`, for which the inhibition at 250 µg/mL in data set [9] stood at 96%. Besides, the LC50 at 24 h in data set [10] was 26 µM.

Consider `Cc1nn(-c2ccccc2)c(Oc2cccc(C(F)(F)F)c2)c1-c1nnc(-c2ccc(Br)cc2)o1`, for which the inhibition at 250 µg/mL in data set [9] was 91%.

`Cc1ccc(-c2nnc(-c3c(C)nn(-c4ccccc4)c3Oc3cccc(F)c3)o2)cc1`: the inhibition at 250 µg/mL in data set [9] is above 90%.

In the case of `Cc1ccc(-c2nnc(-c3c(C)nn(-c4ccccc4)c3Oc3ccc(F)cc3)o2)cc1`, in [9], the inhibition at 250 µg/mL is above 90%.

`Cc1nn(-c2ccccc2)c(Oc2ccc(F)cc2)c1-c1nnc(-c2ccc(Br)cc2)o1`: the inhibition at 250 µg/mL in [9] was found to be 91%.

Consider `CC1(C)Cc2c(C#CCO)c(NC(=O)C(C)(C)C)cc(-c3nnc(-c4ccc(C(F)(F)F)cc4)o3)c2O1`, for which the MIC in [11] worked out at 2 µg/mL (≈ 3.89 µM). Besides, it took 5.7 µM to reach the 90% level in data set [12] (IC90).

On to `Clc1nc2ccccc2cc1CN(c1ccccc1)c1nnc(-c2cccnc2)o1`, for which the inhibition at 250 µg/mL in data set [9] stood at 96%. Further, in [10], the LC50 at 24 h came to 26 µM.

For the compound `O=C(Nc1nnc(-c2ccc(Cl)cc2)o1)c1ccc([N+](=O)[O-])s1`, the MIC in data set [13], in data set [14] and in data set [15] (read-out: MIC100) was 7.8 µg/mL (≈ 22.2 µM) each time.

In the case of `CN1CCN(Cc2nnc(-c3ccc(Cl)cc3)o2)CC1`, in data set [2], the MIC turned out to be 3.12 µg/mL (≈ 10.7 µM).

Compound `COc1ccc(-c2cc(-c3nnc(C)o3)nn2-c2ccc(NC(=O)c3ccc(F)cc3)cc2)cc1` registered an MIC in data set [16] above 50 µg/mL.

Regarding `O=C(Nc1nnc(-c2ccc(Cl)cc2)o1)c1ccc([N+](=O)[O-])[nH]1`, the MIC in [13] stood at 31.2 µg/mL (≈ 93.6 µM); in data set [14], 7.8 µg/mL (≈ 23.4 µM); in data set [15] (read-out: MIC), 7.8 µg/mL (≈ 23.4 µM).

For the compound `Cc1nnc(-c2cc(-c3ccc(Cl)cc3)n(-c3ccc(NC(=O)c4ccccc4Cl)cc3)n2)o1`, the MIC in [16] was 1.56 µg/mL (≈ 3.18 µM).

With `O=C(Nc1nnc(-c2ccc(Cl)cc2)o1)c1ccc([N+](=O)[O-])o1`, the MIC in data set [13], in data set [14] and in data set [15] (read-out: MIC100) was 7.8 µg/mL (≈ 23.3 µM) throughout.

On to `O=c1[nH]nc(Cc2coc3cc(Cl)ccc23)o1`, for which the MIC in data set [8] and in data set [17] was 3.12 µg/mL (≈ 12.5 µM) throughout.

For `O=C(Nc1nnc(-c2ccc(Cl)cc2)o1)c1cccc([N+](=O)[O-])c1`, the MIC in data set [13], in [14] and in [15] (read-out: MIC100) was 7.8 µg/mL (≈ 22.6 µM) each time.

As for `Cc1nn(-c2ccccc2)c(Oc2cccc(F)c2)c1-c1nnc(-c2ccccc2)o1`, the inhibition at 250 µg/mL in data set [9] was 91%.

With `O=C(Nc1nnc(-c2ccc(Cl)cc2)o1)c1ccccc1`, the MIC in data set [13] was determined as 7.8 µg/mL (≈ 26 µM); in data set [14], 31.2 µg/mL (≈ 104 µM).

Compound `CO[C@H]1O[C@H](Cc2nnc(C)o2)[C@H](OCc2ccccc2)[C@H](OCc2ccccc2)[C@H]1OCc1ccccc1` returned an MIC in data set [18] of 60 µM (≈ 31.8 µg/mL).

In data set [16], `COc1ccc(-c2cc(-c3nnc(C)o3)nn2-c2ccc(NC(=O)c3ccccc3)cc2)cc1` showed an MIC above 50 µg/mL.

Consider `O=c1[nH]nc(Cc2coc3ccc(Cl)cc23)o1`, for which the MIC in [8] and in data set [17] was 3.12 µg/mL (≈ 12.5 µM) throughout.

With `COc1ccc(-c2nnc(CN3CCN(C)CC3)o2)cc1`, the MIC in data set [2] was determined as 3.12 µg/mL (≈ 10.8 µM).

For `O=c1[nH]nc(Cc2coc3cc(Br)ccc23)o1`, the MIC in [8] and in data set [17] was 1.56 µg/mL (≈ 5.29 µM) throughout.

For the compound `S=c1[nH]nc(CN2CCOCC2)o1`, in [19], the MIC was found to be 7.8 µg/mL (≈ 38.8 µM).

Take `Cc1cccc(Oc2c(-c3nnc(-c4ccc(F)cc4)o3)c(C)nn2-c2ccccc2)c1`: the inhibition at 250 µg/mL in [9] was determined as 91%.

On to `S=c1[nH]nc(CN2CCSCC2)o1`, for which the MIC in [19] is 7.8 µg/mL (≈ 35.9 µM).

As to `O=C(CCCC(F)(F)F)C1CCC(c2nc(-c3nccs3)no2)CC1` (stereo not given), half-maximal inhibition in [20] (IC50) was put at 0.4 µM.

In the case of `CN1CCN(Cc2nnc(-c3ccc(O)cc3)o2)CC1`, the MIC in data set [2] was found to be 3.12 µg/mL (≈ 11.4 µM).

In data set [16], `Cc1nnc(-c2cc(-c3ccc(Cl)cc3)n(-c3ccc(NC(=O)c4ccc(Cl)cc4)cc3)n2)o1` yielded an MIC of 3.13 µg/mL (≈ 6.38 µM).

As to `NC(=O)c1cnccn1` [PYRAZINAMIDE], the MIC stood at 3.12 µg/mL (≈ 25.4 µM) in [8], 3.12 µg/mL (≈ 25.4 µM) in data set [17] and 3.12 µg/mL (≈ 25.3 µM) in data set [2].

`CO[C@H]1/C=C/O[C@@]2(C)Oc3c(C)c(O)c4c(O)c(c(/C=N/N5CCN(C)CC5)c(O)c4c3C2=O)NC(=O)/C(C)=C\C=C\[C@H](C)[C@H](O)[C@@H](C)[C@@H](O)[C@@H](C)[C@H](OC(C)=O)[C@@H]1C` [RIFAMPIN]: in data set [9], the inhibition at 250 µg/mL amounted to 98%. In data set [5], the MIC was determined as 0.2 µg/mL (≈ 0.243 µM).

As to `CN[C@@H]1[C@H](O[C@H]2[C@H](O[C@H]3[C@H](O)[C@@H](O)[C@H](N=C(N)N)[C@@H](O)[C@@H]3N=C(N)N)O[C@@H](C)[C@]2(O)C=O)O[C@@H](CO)[C@H](O)[C@H]1O` [STREPTOMYCIN], the MIC in data set [8] stood at 6.25 µg/mL (≈ 10.7 µM); in data set [19] it was 4 µg/mL (≈ 6.88 µM); in [17] it was 6.25 µg/mL (≈ 10.7 µM).
